Legend:
Type in all cases: in vivo, mouse
Ucp1 = experiment: UCP1 immunoblot in inguinal and epididymal white adipose tissues
Description: Normalized UCP1 levels were calculated based on the densitometry analysis of the UCP1 immunoblot and the α-Tubulin immunoblot. The interscapular brown adipose tissue (iBAT) were included as a control. Asterisk denotes the loading of the iBAT lanes on the UCP1 immunoblot was 1/100 of other lanes to avoid overloading. (B) Immunohistochemistry (IHC) of UCP1 protein reveal miR-133 antagonism induced beige adipocytes within inguinal and epididymal white adipose tissues. […] Error bars: S.E.M., asterisk: significant pair-wise comparison by t-test, *: p≦0.05, **: p≦0.01, ***: p≦0.001.
The following antibodies and dilutions were used: anti-Prdm16 antibody (generated in Dr. Patrick Seale's laboratory), 1:5,000 dilution; anti-Perilipin A antibody (Vala Sciences), 1:5,000 dilution; anti-Ucp1 antibody (Ab10983, Abeam), 1:1,000 dilution (FIGS. 4B, 5A, 7A); anti-Ucp1 antibody (Calbiochem), 1:1,000 dilution (FIG. 8C); anti-Ucp3 antibody (Ab3477, Abeam), 1:1,000 dilution; anti-Pgc1α antibody (Abeam), 1:1,000 dilution; anti-pan myosin heavy chain (MyHC) antibody (Developmental Studies Hybridoma Bank), 1:500; anti-DsRed (tdTomato) antibody (Ablab), 1:500; anti-α-Tubulin antibody (Sigma-Aldrich), 1:10,000 dilution.

IPGTT glucose tolerance = conditions: both diet groups
From the text: (B) Retarded body weight increase over a 16-week body weight monitoring time course in mice received miR-133 ASO treatment during TA muscle regeneration (n=6 per treatment group per diet group). […] Values of total energy expenditure were plotted without normalization to lean body mass. (D) Physical activities measured within light and dark cycles during indirect calorimetry (C) reveal increased physical activities within the dark cycle for miR-133 ASO treated mice (fed the RD). Physical activities are presented as arithmetic means of beam breaking events at X-, Y- and Z-dimensions. (E) IPGTT tests for C57BL/6 mice received either control- or miR-133 ASO treatment (fed the RD; n=6 per group). Error bars: S.E.M., asterisk: significant pair-wise comparison by t-test, *: p≦0.05, **: p≦0.01, ***: p≦0.001, n.s.: not significant.
(§1) This discrepancy may be related to the abnormally low respiratory exchange ratio (˜0.76) in the control mice fed with HFD (FIG. 7D), which indicates an increased proportion of lipid oxidation in the control mice. […] In addition, miR-133 ASO treatment also led to much improved glucose tolerance in both diet groups (FIGS. 6E & 7F).

[1] = tested on: epididymal white fat depots and liver; experiment: H/E staining of fat depots and liver; conditions: mice fed the HFD
From the text: as §1

[2] = Body weight and fat depot weights after ASO treatment during TA muscle regeneration
Description: Treated and control C57BL/6 male mice were raised on either RD or HFD in individual cages at 22° C. (n=5 per treatment per diet group). In both diet groups, miR-133 ASO treated mice were obviously leaner than the control mice at 4-month after treatment (FIG. 6A).
To induce brown adipocytes in vivo, 10 mg/mL Cardiotoxin solution (50 μl) was intramuscularly injected into TA muscles of 10-week old Pax7-CreER/R26R-tdTomato mice (FIG. 4) or C57BL/6 mice (FIG. 5 and FIG. 6). Alternatively, frozen injury was performed by applying liquid nitrogen cooled tweezers tips directly onto the anterior sides of TA muscles. After 3 days, 20 μg of miR-133 antagomiR or control antagomiR in saline (50 μl) was intramuscularly injected into the same injured TA muscles (on right hindlimbs). To test efficacy of miR-133 ASO in intact muscles, saline, instead of Cardiotoxin, was injected to TA muscles before miR-133 ASO administration (FIGS. 4A, 4B). miR-133 antagomiR and scramble antagomiR were designed as previously described (Krutzfeldt et al., 2005).

## *mA*mUmAmGmCmUmGmGmUmUmGmAmAmGmGmGmGmAmC*mC*mA*mA*mAChl [miR-133 ASO]
Ucp1; C57BL/6 mice fed with a high fat diet (HFD)
  effect on UCP1 in white adipose tissues: not present
Ucp1; C57BL/6 mice fed with a regular diet (RD), CTX
  UCP1 in inguinal and epididymal white adipose tissues: increase
IPGTT glucose tolerance
  glucose tolerance: much improved
[1]
  infiltrating inflammatory cells in the epididymal white fat depots: reduced numbers
  steatosis of the liver: reduced steatosis
[2]; 4-month period after ASO administration, RD or HFD, C57BL/6 male
  gain in body weight: reduced gain in body weight
[2]; mouse, in vivo
  igWAT and epiWAT weights: significant reduction
  mass of iBAT depots and treated TA muscles: unaffected

Source: US9018188B2, “MicroRNA inhibitors” (Ottawa Hospital Research Institute, priority 2011, dated 2015)
